Assay results reported in patent US4315928A, “N-Aminosulfenyl carbamate compounds, compositions and use” (priority 1975, dated 1982).

Legend:
soybeans = assay: Phytotoxicity Test, soybeans; format: in vivo; parameters: key: A rating of 1 indicates no perceptible injury; ratings of 2, 3 and 4 indicate intermediate degrees of injury; ratings of 2, 3 and 4 indicate intermediate degrees of injury; ratings of 2, 3 and 4 indicate intermediate degrees of injury; 5 indicates the plant was dead; details: ten days
Description: (§1) Suspensions of the test compounds were prepared by dissolving one gram of compound in 50 milliliters of acetone in which had been dissolved 0.1 gram (10 percent of the weight of compound) of an alkylphenoxy polyethoxyethanol surfactant, as an emulsifying or dispersing agent. The resulting solution was mixed into 150 milliliters of water to give roughly 200 milliliters of a suspension containing the compound in finely divided form. The thus-prepared stock suspension contained 0.5 percent by weight of compound. The test concentrations in parts per million by weight employed in the tests described hereinbelow were obtained by appropriate dilutions of the stock suspension with water. The test procedures were as follows:
(§2) Experiments were also conducted to determine the phytotoxicity of representative compositions with respect to healthy fresh plants. Solutions of the compounds were prepared as described above to provide a concentration of 2500 parts per million of the test compound. The test plants were sprayed in accordance with the procedure described above for the Mite Foliage Spray Test so as to deliver approximately 100 milliliters of test solution to the leaves of each plant tested. The sprayed plants and controls were set aside for approximately one hour to allow the solutions to dry and were then placed in the greenhouse. After ten days the plants were visually inspected to determine the extent of foliage injury. A rating of 1 indicates no perceptible injury; 5 indicates the plant was dead and ratings of 2, 3 and 4 indicate intermediate degrees of injury based upon the number and extent to which leaves were injured.

[1] = tested on: bean aphid (Aphis fabae Scop.); assay: whole plant or invertebrate; details: foliar, 24 h, read-out: Insect Toxicity, % Kill at 250 ppm, BA
[2] = tested on: Mexican bean beetle (Epilachna varivestis, Muls.); assay: whole plant or invertebrate; details: 72 h, read-out: Insect Toxicity, % Kill at 250 ppm, MBB
in vivo = details: rat, in vivo, po
Description: (§3) These compositions were also evaluated to determine their peroral toxicity to mammals by conventional methods. The animal selected for this experiment was the rat.

corn = assay: Phytotoxicity Test, corn; format: in vivo; parameters: key: A rating of 1 indicates no perceptible injury; ratings of 2, 3 and 4 indicate intermediate degrees of injury; ratings of 2, 3 and 4 indicate intermediate degrees of injury; ratings of 2, 3 and 4 indicate intermediate degrees of injury; 5 indicates the plant was dead; details: ten days
Description: as §1, §2

green beans = assay: Phytotoxicity Test, green beans; format: in vivo; parameters: key: A rating of 1 indicates no perceptible injury; ratings of 2, 3 and 4 indicate intermediate degrees of injury; ratings of 2, 3 and 4 indicate intermediate degrees of injury; ratings of 2, 3 and 4 indicate intermediate degrees of injury; 5 indicates the plant was dead; details: ten days
Description: as §1, §2

cotton = assay: Phytotoxicity Test, cotton; format: in vivo; parameters: key: A rating of 1 indicates no perceptible injury; ratings of 2, 3 and 4 indicate intermediate degrees of injury; ratings of 2, 3 and 4 indicate intermediate degrees of injury; ratings of 2, 3 and 4 indicate intermediate degrees of injury; 5 indicates the plant was dead; details: ten days
Description: as §1, §2

[3] = tested on: house flies (Musca domestica, L.); assay: whole plant or invertebrate; details: po, 24 h, read-out: Insect Toxicity, % Kill at 250 ppm, HF
[4] = tested on: two-spotted mite (Tetranychus urticae Koch); assay: whole plant or invertebrate; details: foliar, 144 h, read-out: Insect Toxicity, % Kill at 250 ppm, TSM
tomato = assay: Phytotoxicity Test, tomato; format: in vivo; parameters: key: A rating of 1 indicates no perceptible injury; ratings of 2, 3 and 4 indicate intermediate degrees of injury; ratings of 2, 3 and 4 indicate intermediate degrees of injury; ratings of 2, 3 and 4 indicate intermediate degrees of injury; 5 indicates the plant was dead; details: ten days
Description: as §1, §2

[5] = tested on: southern armyworm (Prodenia eridania, (Cram.)); assay: whole plant or invertebrate; details: Spodoptera eridania, 72 h, read-out: Insect Toxicity, % Kill at 250 ppm, SAW
rat = assay: in vivo; details: oral, statement on Table I
Description: as §3

Compound	Crop Phytotoxicity, Injury Rating at 2500 ppm, SOYBN. (soybeans)	mortality at 250 ppm [1]	mortality at 250 ppm [2]	LD50 (in vivo)	Crop Phytotoxicity, Injury Rating at 2500 ppm, CN (corn)	Crop Phytotoxicity, Injury Rating at 2500 ppm, GB (green beans)	Crop Phytotoxicity, Injury Rating at 2500 ppm, COT. (cotton)	mortality at 250 ppm [3]	mortality at 250 ppm [4]	Crop Phytotoxicity, Injury Rating at 2500 ppm, TOM (tomato)	mortality at 250 ppm [5]	mammalian toxicity (in words) (rat)
CC1OCSC1=NOC(=O)N(C)SN1CCOCC1 (centres unmarked) [Compound 9, 5-Methyl-4-N-[N'-Methyl-N'-(4-Morpholinosulfenyl)carbamoyloxy]imino-1,3-Oxathiolane]	2	100%	100%	16 mg/kg	1	1	1	100%	100%	2	100%	–
CN(SN1CCOCC1)C(=O)ON=C1CSCCS1 [Compound 5, 2-N-[N'-Methyl-N'-(4-Morpholinosulfenyl)Carbamoyloxy]imino-1,4-Dithiane]	1	100%	100%	19.8 mg/kg	1	1	1	100%	100%	1	100%	–
CCSC(C)=NOC(=O)N(C)SN1CCOCC1 [Compound 4, S-Ethyl-N-[N'-Methyl-N'-(4-Morpholinosulfenyl)Carbamoyloxy]Thioacetimidate]	2	100%	100%	141 mg/kg	1	1	1	100%	100%	1	100%	extremely low mammalian toxicity
CC(=NOC(=O)N(C)SN1CCOCC1)SC(C)C [Compound 7, S-Isopropyl N-[N'-Methyl-N'-(4-Morpholinosulfenyl)carbamoyloxy]thioacetimidate]	1	100%	100%	28.1 mg/kg	1	2	1	100%	100%	1	100%	–
CSC(C)=NOC(=O)N(C)SN1CCOCC1 [Compound 3, S-Methyl N-[N'-Methyl-N'-(4-Morpholinosulfenyl)carbamoyloxy]-thioacetimidate]	1	–	–	–	1	1	1	–	–	1	–	extremely low mammalian toxicity
CC(=NOC(=O)N(C)SN1CCOCC1)SCCC#N [Compound 8, S-(2-Cyanoethyl)-N-[N'-Methyl-N'-(4-Morpholinosulfenyl)carbamoyloxy]thioacetimidate]	1	100%	100%	22 mg/kg	1	1	1	100%	100%	1	100%	–
CSC(C)=NOC(=O)N(SN1CCOCC1)C(C)C [Compound 14, S-Methyl-N-[N'-Isopropyl-N'-(4-Morpholinosulfenyl)Carbamoyloxy]Thioacetimidate]	1	100%	0%	–	1	1	1	0%	0%	1	0%	–
CSC(C)(C)C=NOC(=O)N(C)SN1CCOCC1 [Compound 6, 2-Methyl-2-(Methylthio)propionaldehyde O-[N-Methyl-N-(4-Morpholinosulfenyl)Carbamoyl]oxime]	1	100%	0%	1.2 mg/kg	1	1	1	100%	100%	1	10%	–
CN(SN1CCOCC1)C(=O)ON=CC(C)(C)C#N [Compound 10, 2-Cyano-2-Methylpropionaldehyde O-[N-Methyl-N-(4-Morpholinosulfenyl)Carbamoyl]oxime]	1	100%	100%	–	1	1	3	100%	100%	1	100%	–
CN(C)SN(C)C(=O)ON=C1CSCCS1 [Compound 23, 2-N-[N'-Methyl-N'-(Dimethylaminosulfenyl)carbamoyloxy]imino-1,4-Dithiane]	1	100%	100%	15 mg/kg	1	1	2	100%	100%	1	100%	–
CN(SN1CCOCC1)C(=O)ON=C1SCC(=O)NC1(C)C [Compound 16, 3,3-Dimethyl-2-N-[N'-Methyl-N'-(4-Morpholinosulfenyl)Carbamoyloxy]imino-5-Oxo-Perhydro-1,4-Thiazine]	1	100%	100%	–	1	1	1	100%	100%	1	100%	–
CC(=NOC(=O)N(C)SN(C)C)SC(C)C [Compound 24, S-Isopropyl-N-[N'-Methyl-N'-(Dimethylaminosulfenyl)carbamoloxy]thioacetimidate]	3	100%	100%	28.3 mg/kg	1	2	2	100%	100%	2	100%	–
